Test results published in ChEMBL document CHEMBL1201862, “PubChem BioAssay data set” (2004).
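Five concentrations, 48 hours, 96-well plates. Here, GI50 denotes the concentration required for 50% inhibition of growth.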 Active and inactive are the calls of the source. No stated cut-off is given here; in the data, active = GI50 up to about 1.1 µM and inactive = higher.

Columns and labels:
Experiment in all cases: DTP human tumour cell line panel, 48 h
NCI-H522 = system: NCI-H522
UO-31 = system: UO-31
EKVX = system: EKVX
MDA-MB-435 = system: MDA-MB-435
LOX IMVI = system: LOX IMVI
OVCAR-8 = system: OVCAR-8
RPMI-8226 = system: RPMI-8226
U-251 = system: U-251
UACC-257 = system: UACC-257
ACHN = system: ACHN
RXF 393 = system: RXF 393
MDA-MB-231 = system: MDA-MB-231
SK-MEL-28 = system: SK-MEL-28
KM12 = system: KM12
T47D = system: T47D
HCC 2998 = system: HCC 2998
HOP-62 = system: HOP-62
SF-295 = system: SF-295
Hs-578T = system: Hs-578T
IGROV-1 = system: IGROV-1

For `CN(C)CCCN1c2ccc3ccccc3c2Sc2cccc(Cl)c21`, the GI50 (NCI-H522) was 2.61 µM (inactive), the GI50 (UO-31) was 2.79 µM (inactive) and the GI50 (EKVX) was 2.38 µM (inactive). The GI50 (MDA-MB-435) was 1.98 µM (inactive), the GI50 (LOX IMVI) was 1.97 µM (inactive) and the GI50 (OVCAR-8) was 4.33 µM (inactive). The GI50 (RPMI-8226) was 1.78 µM (inactive), the GI50 (U-251) was 2.18 µM (inactive) and the GI50 (UACC-257) was 1.69 µM (inactive). The GI50 (ACHN) was 3.38 µM (inactive), the GI50 (RXF 393) was 3.82 µM (inactive) and the GI50 (MDA-MB-231) was 2.32 µM (inactive). The GI50 (SK-MEL-28) was 2.18 µM (inactive), the GI50 (KM12) was 2.08 µM (inactive) and the GI50 (T47D) was 2.46 µM (inactive). The GI50 (HCC 2998) was 1.61 µM (inactive), the GI50 (HOP-62) was 2.85 µM (inactive) and the GI50 (SF-295) was 3.91 µM (inactive). For the same compound, the GI50 (Hs-578T) was 0.665 µM (active) and the GI50 (IGROV-1) was 1.54 µM (inactive).

For `COc1cc(-c2cc(=O)c3c(OC)c(OC)c(OC)cc3o2)c(OC)c(OC)c1OC`, the GI50 (NCI-H522) was > 75 µM (inactive), the GI50 (UO-31) was 57.3 µM (inactive) and the GI50 (EKVX) was > 75 µM (inactive). The GI50 (MDA-MB-435) was > 75 µM (inactive), the GI50 (LOX IMVI) was 63.5 µM (inactive) and the GI50 (OVCAR-8) was > 75 µM (inactive). For the same compound, the GI50 (RPMI-8226) was 25 µM (inactive), the GI50 (U-251) was > 75 µM (inactive) and the GI50 (UACC-257) was > 75 µM (inactive). The GI50 (ACHN) was > 75 µM (inactive), the GI50 (RXF 393) was 52.1 µM (inactive) and the GI50 (MDA-MB-231) was 63.4 µM (inactive). For the same compound, the GI50 (SK-MEL-28) was > 75 µM (inactive), the GI50 (KM12) was > 75 µM (inactive) and the GI50 (T47D) was 49.3 µM (inactive). The GI50 (HCC 2998) was > 75 µM (inactive), the GI50 (HOP-62) was > 75 µM (inactive) and the GI50 (SF-295) was > 75 µM (inactive). The GI50 (Hs-578T) was > 75 µM (inactive) and the GI50 (IGROV-1) was > 75 µM (inactive).

With `Cc1ccc([N+](=O)[O-])c2c(NCCC[N+](C)(C)[O-])c3ccccc3nc12` the GI50 (NCI-H522) was 0.204 µM (active), the GI50 (UO-31) was 16.1 µM (inactive) and the GI50 (EKVX) was 1.11 µM (active). For the same compound, the GI50 (MDA-MB-435) was 1.77 µM (inactive), the GI50 (LOX IMVI) was 2.04 µM (inactive) and the GI50 (OVCAR-8) was 4.75 µM (inactive). For the same compound, the GI50 (RPMI-8226) was 2.74 µM (inactive), the GI50 (U-251) was 1.32 µM (inactive) and the GI50 (UACC-257) was 2.41 µM (inactive). For the same compound, the GI50 (ACHN) was 5.57 µM (inactive), the GI50 (RXF 393) was 1.35 µM (inactive) and the GI50 (MDA-MB-231) was 1.86 µM (inactive). For the same compound, the GI50 (SK-MEL-28) was 3.68 µM (inactive), the GI50 (KM12) was 1.79 µM (inactive) and the GI50 (T47D) was 0.916 µM (active). For the same compound, the GI50 (HCC 2998) was 0.841 µM (active), the GI50 (HOP-62) was 2.56 µM (inactive) and the GI50 (SF-295) was 3.43 µM (inactive). The GI50 (Hs-578T) was 3.24 µM (inactive) and the GI50 (IGROV-1) was 1.19 µM (inactive).

`Cn1c2c3c(F)c(F)ccc3nc-2cc2ccccc21` was tested, and the GI50 (NCI-H522) was 3.03 µM (inactive), the GI50 (UO-31) was 1.36 µM (inactive) and the GI50 (EKVX) was 12.4 µM (inactive). The GI50 (MDA-MB-435) was 3.88 µM (inactive), the GI50 (LOX IMVI) was 1.07 µM (active) and the GI50 (OVCAR-8) was 1.74 µM (inactive). For the same compound, the GI50 (RPMI-8226) was 0.711 µM (active), the GI50 (U-251) was 1.58 µM (inactive) and the GI50 (UACC-257) was 3.83 µM (inactive). The GI50 (ACHN) was 0.583 µM (active), the GI50 (RXF 393) was 4.05 µM (inactive) and the GI50 (MDA-MB-231) was 3.3 µM (inactive). The GI50 (SK-MEL-28) was 4.17 µM (inactive), the GI50 (KM12) was 0.927 µM (active) and the GI50 (T47D) was 0.582 µM (active). For the same compound, the GI50 (HCC 2998) was 1.32 µM (inactive), the GI50 (HOP-62) was 1.35 µM (inactive) and the GI50 (SF-295) was 1.12 µM (active). The GI50 (Hs-578T) was 12.2 µM (inactive) and the GI50 (IGROV-1) was 3.42 µM (inactive).

With `CS(=O)(=O)OC1CCN(C2(c3cccc(O)c3)CCCCC2)CC1` the GI50 (NCI-H522) was > 100 µM (inactive), the GI50 (UO-31) was 44.7 µM (inactive) and the GI50 (EKVX) was 92.7 µM (inactive). For the same compound, the GI50 (MDA-MB-435) was 29.2 µM (inactive), the GI50 (LOX IMVI) was 21.8 µM (inactive) and the GI50 (OVCAR-8) was 57.7 µM (inactive). The GI50 (RPMI-8226) was 20.7 µM (inactive), the GI50 (U-251) was 64.7 µM (inactive) and the GI50 (UACC-257) was 38.4 µM (inactive). For the same compound, the GI50 (ACHN) was > 100 µM (inactive), the GI50 (RXF 393) was 64.6 µM (inactive) and the GI50 (MDA-MB-231) was 73.5 µM (inactive). The GI50 (SK-MEL-28) was 60.4 µM (inactive), the GI50 (KM12) was > 100 µM (inactive) and the GI50 (T47D) was 70.6 µM (inactive). For the same compound, the GI50 (HCC 2998) was 20.6 µM (inactive), the GI50 (HOP-62) was 36.1 µM (inactive) and the GI50 (SF-295) was 36 µM (inactive). The GI50 (Hs-578T) was > 100 µM (inactive) and the GI50 (IGROV-1) was 28.7 µM (inactive).

With `CC1=CCC[C@@](C)(O)[C@@H]2C[C@H]3C(CSc4ccccc4)C(=O)O[C@H]3[C@@H](O2)[C@H](C)CCC1` (stereo not given in full) the GI50 (NCI-H522) was 10.7 µM (inactive), the GI50 (UO-31) was 11.8 µM (inactive) and the GI50 (EKVX) was 18.6 µM (inactive). For the same compound, the GI50 (MDA-MB-435) was 20.3 µM (inactive), the GI50 (LOX IMVI) was 15.9 µM (inactive) and the GI50 (OVCAR-8) was 13.7 µM (inactive). For the same compound, the GI50 (RPMI-8226) was 7.43 µM (inactive), the GI50 (U-251) was 21.2 µM (inactive) and the GI50 (UACC-257) was 18.6 µM (inactive). For the same compound, the GI50 (ACHN) was 12.9 µM (inactive), the GI50 (RXF 393) was 13.7 µM (inactive) and the GI50 (MDA-MB-231) was 28.1 µM (inactive). For the same compound, the GI50 (SK-MEL-28) was 21 µM (inactive), the GI50 (KM12) was 9.18 µM (inactive) and the GI50 (T47D) was 22.2 µM (inactive). The GI50 (HCC 2998) was 15.8 µM (inactive), the GI50 (HOP-62) was 16.6 µM (inactive) and the GI50 (SF-295) was 12 µM (inactive). The GI50 (Hs-578T) was 18.4 µM (inactive) and the GI50 (IGROV-1) was 14.5 µM (inactive).

In the case of `COc1cc2c(c(O)c1C)C(=O)C(Cl)=CC2=O`, the GI50 (NCI-H522) was 2.36 µM (inactive), the GI50 (UO-31) was 10.4 µM (inactive) and the GI50 (EKVX) was 16 µM (inactive). For the same compound, the GI50 (MDA-MB-435) was 7.46 µM (inactive), the GI50 (LOX IMVI) was 9.53 µM (inactive) and the GI50 (OVCAR-8) was 18.8 µM (inactive). The GI50 (RPMI-8226) was 6.35 µM (inactive), the GI50 (U-251) was 21.4 µM (inactive) and the GI50 (UACC-257) was 9.95 µM (inactive). The GI50 (ACHN) was 6.4 µM (inactive), the GI50 (RXF 393) was 6.31 µM (inactive) and the GI50 (MDA-MB-231) was 12 µM (inactive). The GI50 (SK-MEL-28) was 18.8 µM (inactive), the GI50 (KM12) was 19.5 µM (inactive) and the GI50 (T47D) was 2.17 µM (inactive). The GI50 (HCC 2998) was 22.3 µM (inactive), the GI50 (HOP-62) was 43.2 µM (inactive) and the GI50 (SF-295) was 18.7 µM (inactive). The GI50 (Hs-578T) was 30.5 µM (inactive) and the GI50 (IGROV-1) was 20.4 µM (inactive).

For `CCC1(O)C=CC(=O)C=C1`, the GI50 (NCI-H522) was 10.3 µM (inactive), the GI50 (UO-31) was 18.1 µM (inactive) and the GI50 (EKVX) was 55.1 µM (inactive). The GI50 (MDA-MB-435) was 29 µM (inactive), the GI50 (LOX IMVI) was 11.6 µM (inactive) and the GI50 (OVCAR-8) was 26.7 µM (inactive). The GI50 (RPMI-8226) was 32.4 µM (inactive), the GI50 (U-251) was 15.3 µM (inactive) and the GI50 (UACC-257) was 18.8 µM (inactive). For the same compound, the GI50 (ACHN) was 20.6 µM (inactive), the GI50 (RXF 393) was 18.4 µM (inactive) and the GI50 (MDA-MB-231) was 17.2 µM (inactive). The GI50 (SK-MEL-28) was 23.3 µM (inactive), the GI50 (KM12) was 15 µM (inactive) and the GI50 (T47D) was 22.7 µM (inactive). For the same compound, the GI50 (HCC 2998) was 40.8 µM (inactive), the GI50 (HOP-62) was 27.7 µM (inactive) and the GI50 (SF-295) was 33.9 µM (inactive). The GI50 (Hs-578T) was 66.5 µM (inactive) and the GI50 (IGROV-1) was 17.2 µM (inactive).

`NC(Cn1ccc(=O)c(O)c1)C(=O)O` (stereo not given) [MIMOSINE] was tested, and the GI50 (NCI-H522) was > 100 µM (inactive), the GI50 (UO-31) was > 100 µM (inactive) and the GI50 (EKVX) was > 100 µM (inactive). For the same compound, the GI50 (MDA-MB-435) was > 100 µM (inactive), the GI50 (LOX IMVI) was > 100 µM (inactive) and the GI50 (OVCAR-8) was > 100 µM (inactive). For the same compound, the GI50 (RPMI-8226) was > 100 µM (inactive), the GI50 (U-251) was > 100 µM (inactive) and the GI50 (UACC-257) was > 100 µM (inactive). For the same compound, the GI50 (ACHN) was > 100 µM (inactive), the GI50 (RXF 393) was > 100 µM (inactive) and the GI50 (MDA-MB-231) was > 100 µM (inactive). The GI50 (SK-MEL-28) was > 100 µM (inactive), the GI50 (KM12) was > 100 µM (inactive) and the GI50 (T47D) was > 100 µM (inactive). The GI50 (HCC 2998) was > 100 µM (inactive), the GI50 (HOP-62) was > 100 µM (inactive) and the GI50 (SF-295) was > 100 µM (inactive). The GI50 (Hs-578T) was > 100 µM (inactive) and the GI50 (IGROV-1) was > 100 µM (inactive).
